One assay concerns PN1 promoter. The assay can be described thus: Protease nexin 1 (PN1) promoter luciferase reporter in transfected NIH 3T3 cells. It counts as cell-based, mouse. The settings on record: NIH 3T3, TGF-β alone, 24 hour. The procedure: (§1) The latter contains a 4.5 kb fragment of the PN1 promoter driving the luciferase gene. Cells were incubated for 24 hours after transfection, washed 3 times with PBS and then subjected to a 24 hour treatment with geldanamycin, TGF or both, as indicated. Cells were then harvested and luciferase activities determined; Transient transfections were performed using lipofectamine (Gibco BRL) as follows: 10 μg (total) of indicated plasmid DNA was mixed with 30 μl of lipofectamine and 500 μl of serum-free DMEM (Gibco). This mixture was incubated at room temperature for 20 minutes. Ten cm dishes of sub-confluent 3T3 fibroblasts were rinsed with PBS, and 5 ml of serum free DMEM added to each dish. The DNA/lipofectamine mixture was added to each dish and incubated in the 37° CO2 incubator for 4 hours. Ten ml of DMEM with 15% serum was added and plates were incubated overnight. Medium was replaced with 10% serum at 24 hours and extracts of cells were harvested at 48 hours. Cell extracts were obtained using Passive Lysis Buffer (Promega) and assays were performed according to the Promega protocol for pGL3 luciferase vectors. Protein concentrations of all extracts were determined and each luciferase reading is normalized for protein concentration. The 4.7 kb human MMP1 promoter driving luciferase was a gift of Constance Brinckerhoff (Dartmouth Medical School) (36). […]
On the technique in general: Reporter assays use an easily measured gene product as a stand-in for the process of interest.

In assay [1] the test system is Smad DNA-binding activity. The assay can be described thus: Electrophoretic mobility shift assay, Smad binding element (SBE), 3T3 nuclear extracts. Type of assay: cell-based, mouse. The settings on record: 15 minute TGF-β treatment alone. A general note: In EMSA bound probe runs differently from free probe, usually more slowly.
Experimental: (A) Cells were harvested and subjecting to electrophoretic mobility shift analysis using a Smad binding element (SBE). […] Where indicated, extracts were prepared with 100-fold higher levels of cold competitor probe. (B) Cells were subjected to 24 hour treatments with geldanamycin at various concentrations and extracts prepared and bound to control Oct-1-binding duplex oligos to monitor non-specific effects of geldanamycin.
Protein concentrations of extracts were determined using the BCA reagent (Pierce). […] The probes were end-labeled using γ-^32P-ATP and T4 polynucleotide kinase. Electrophoretic mobility shift assays (EMSA) were performed using 5 μg nuclear extract, 1 μl poly dI/dC (1 mg/ml), 0.1 ng of labeled probe (in 1 μl), and buffer G to achieve a final volume of 10 μl. Buffer G consists of 20 mM Hepes (pH 7.6), 100 mM KCl, 0.2 mM EDTA and 20% glycerol. Extracts and oligo were incubated 15 minutes at room temperature before adding loading buffer and running on a non-denaturing gel.
Electrophoretic mobility shift assays were performed to examine whether geldanamycin reduced the level of Smad DNA-binding activity in nuclear extracts. As before, cells were also subjected to TGF-β or TGF-β and geldanamycin together. […]
Assay [2] concerns TGF-β-sensitive promoter in the 3TPlux construct. The assay can be described thus: TGF-β-sensitive 3TPlux luciferase reporter in transfected NIH 3T3 cells. It counts as cell-based, mouse. The settings on record: NIH 3T3, TGF-β by itself, 24 hour. The procedure: as §1
Assay [3] relates to endogenous collagen transcript in mouse 3T3 cells. Nature of the assay: Northern analysis of endogenous α1(I) collagen message, NIH 3T3 fibroblasts. It counts as cell-based. The conditions noted are these: TGF-β alone, 24 hour. Here is the method:
FIGS. 7A-7C show fibroblasts subjected to 24-hour treatments with geldanamycin, TGF or both. After 24 hours, total RNA was harvested and subjected to northern analysis using an α1(I) collagen probe. (A) Northern analysis using NIH 3T3 fibroblasts. (B) Northern analysis using primary healthy human dermal fibroblasts. (C) Methylene blue staining of the filter in (B). Numbers represent relative intensities of the lower collagen band after normalizing bands to GAPDH band intensity; The clone corresponding to Hsp90-α was purchased as an EST from Genome Systems. […] Sequencing was performed at the Boston University DNA/Protein Sequencing Core. Northern analysis of Hsp90 to total RNA from scleroderma and healthy fibroblasts was performed as previously described (10). Geldanamycin was a generous gift of the National Cancer Institute. Geldanamycin was dissolved in dimethylsulfoxide (DMSO) and used at a final concentration of 2 μM except where indicated otherwise. DMSO without geldanamycin was added as the carrier control for all experiments using geldanamycin. The chaperone function of Hsp90 is dependent on the hydrolysis of ATP (44). […] Geldanamycin was examined to determine whether its inhibition of Hsp90 affected TGF-β activation of collagen transcription in mouse 3T3 and human dermal fibroblasts. Endogenous collagen message levels were used as a measure of TGF-β signal transduction. […]

Consider TGF-β, for which the “effect of TGF-β on the expression of the PN1 promoter” value with PN1 promoter was “little effect”. Besides, the “nuclear Smad after TGF-β treatment” value in assay [1] is listed as “modest increase”. For the same substance, the “induction of the activity of the 3TPlux promoter” value in assay [2] is listed as 3.5 fold. The “increase of endogenous collagen transcript level” value in assay [3] (NIH 3T3, absence of serum) is “approximately 6 fold”; in assay [3] (NIH 3T3, presence of serum), 2 fold.

These data come from patent US6887853B2, “Use of geldanamycin and related compounds for treatment of fibrogenic disorders” (The Trustees of Boston University, priority 2000, dated 2005).
